# No end group written: not given here.
# Key:
# LSEC = test: Cellular tropism of peptide-nanoparticle conjugates in liver (intravital confocal microscopy, electron microscopy); assay type: in vivo, mice
# Protocol: (§1) FIG. 7: Targeted delivery of MBP peptides to LSEC with nanoparticles. A) Plasma clearance rates of MBP peptide coupled to ^59Fe-NP (MBP-^59Fe-NP) and ^14C-MBP peptide coupled to unlabeled NP(^14C-MBP-NP). B) Organ distribution of MBP-^59Fe-NP and ^14C-MBP-NP 60 min after intravenous injection. Mean values±s.e.m. are shown (n=4). C) Representative coronal and transversal MR images of mice pre and post injection of unloaded NP or MBP-NP. D) Intravital confocal microscopy of the liver showing uptake of MBP-NP or unloaded NP by LSEC. Nuclei were also stained. right panel: LSEC (FITC-dextran), left panel: quantum dot-labeled NP; scale bar: 20 μm. E) Electron microscopy of liver, 60 min after intravenous injection of MBP-NP or unloaded NP.
# (§2) To further investigate the cellular tropism of administered peptide-nanoparticle conjugates, conventional as well as intravital confocal fluorescence microscopy of the liver was performed, using nanoparticles with a fluorescent quantum dot core (44). Prior to administration of fluorescent MBP peptide-nanoparticle conjugates, recipient mice were injected with FITC-dextran that is rapidly absorbed by LSEC. […] To confirm that delivered peptide can be presented to T cells, Treg conversion in vitro by LSEC in the presence of free MBP peptide or of MBP peptide bound to nanoparticles (MBP-NP) was studied.
# EAE in tg4 mice = test: Prevention of MBP-induced EAE in tg4 mice; assay type: in vivo; conditions: single injection one day after EAE-induction, tg4 mice (FIG. 8B)
# Protocol: (§3) FIG. 8: Nanoparticle-based delivery of neuroantigen peptides to LSEC prevents EAE induction. EAE was induced in B10.PL wildtype mice (A, E) or tg4 mice (B) by immunization to MBP. In C57BL/6 wildtype mice (C) or hCD2-ΔkTβRII mice (D), EAE was induced by immunization to MOG. One day after EAE induction, mice were injected once intravenously with PBS (A-E) or neuroantigen peptide-loaded nanoparticles (MBP-NP (A, B, E) or MOG-NP (C, D,). As control, mice received equivalent amounts of unloaded NP (A, C) or unconjugated MBP peptide (B,). E, Twice per week, mice treated with MBP-NP were intraperitoneally injected with Treg-depleting PC61 antibody (MBP-NP/Treg-depleted) or isotype-matched control antibody (MBP-NP). Shown are mean EAE scores±s.e.m. (n=5-7).
# (§4) The proposed immunosuppressive effect of MBP-nanoparticles in vivo was first tested in MBP-induced EAE in B10.PL mice (FIG. 8A). […] To confirm the efficacy of the inventive treatment approach in another independent disease model, the effect of nanoparticles loaded with myelin oligodendrocyte glycoprotein (MOG) peptides on the development of MOG-induced EAE was tested in C57BL/6 mice.
# [1] = test system: experimental autoimmune encephalomyelitis (EAE) in B10.PL mice; test: Treatment of EAE with autoantigen-loaded nanoparticles (Example 4); assay type: in vivo; conditions: injected into B10.PL mice one day after EAE induction by Ac1-9 MBP peptide (FIG. 5)
# Protocol: For covalent conjugation of neuroantigen peptide (encephalitogenic Ac1-9 peptide derived from the amino acid sequence of myelin basic protein), iron oxide-core nanoparticles were synthesized as described in example 3 and adjusted to a concentration of 6 μmol/L in 50 mM SBB-buffer (pH=9). An equal amount of 1-Ethyl-3-(3-dimethylaminopropyl)carbodiimide (c=[…]), dissolved in a 50 mM SBB-buffer (pH=9), was added. After 5 minutes, a 1000-fold excess of the neuroantigen peptide was added and the solution was incubated under rotation for 2h at room temperature and then overnight at 4° C. On the next day, the solution was filtered under centrifugal force in a filter device (100 kDa, 2500 g, 4° C.) and the remnant resuspended in PBS. This procedure was repeated 20 times to remove all excess peptide. The obtained peptide-particle conjugates were dissolved in PBS and subjected to size-exclusion-chromatography to assure for the absence of free peptide. Then, the iron content was measured to determine the concentration of the peptide-particle suspension.
# Results: The thus obtained peptide-loaded nanoparticles or, as control, unconjugated peptide-free nanoparticles were then injected into B10.PL mice (n=6), one day after induction of experimental autoimmune encephalomyelitis (EAE) by immunization to Ac1-9 myelin basic protein peptide (25).
# [2] = test system: MBP-induced EAE in B10.PL mice; test: MBP-induced EAE in B10.PL mice with Treg depletion by PC61 antibody; assay type: in vivo
# Protocol: as §3
# FIG. 13: Depletion of CD25+Foxp3+CD4+ Treg in vivo by repeated PC61 antibody-administration. B10.PL mice were immunized to MBP peptide and treated on the next day with PBS (n=7) or MBP peptide-coupled nanoparticles (MBP-NP). Mice, which received MBP-NP, were then either treated twice per week with Treg-depleting PC61 antibody (n=5) or non-depleting isotype-matched control antibody (n=6). Mice were sacrificed on day 29 post immunization and spleens were analyzed for Treg depletion efficiency by flow cytometry. Results are depicted as mean % of CD25+Foxp3+of CD4+ T cells±s.e.m. (PBS 17.16±0.3422; MBP-NP+isotype 15.08±0.8594; MBP-NP+PC61 3.160±0.4643; P<0.001). For comparison of multiple groups, one-way ANOVA and Tukey's post test were performed.
# As the inventors have shown above that tolerance induction by LSEC required TGFβ signaling to T cells, they reasoned that nanoparticle-based targeting of autoantigen peptides to LSEC should be ineffective in mice with TGFβ-insensitive T cells. […] Thus, it can be concluded that also in vivo, the efficacy of nanoparticle-mediated tolerance induction is dependent on TGFβ signaling to T cells. […]
# [3] = Zeta potential measurement (Malvern Zetasizer Nano-ZS); assay type: physicochemical; conditions: 20° C.
# Protocol: FIG. 12: Characteristics of NP and MBP-NP. A) The Zeta potentials of NP and MBP-NP were measured at 20° C. using a Malvern Zetasizer Nano-ZS instrument. […] No differences in size could be detected by B) size exclusion chromatography (MBP-NP: left line; NP: right line) or C) by transmission electron microscopy. For electron microscopy, samples were stained with 1% sodium silicotungstate, pH 7, so that the organic shell appears light and the iron oxide core dark.
# [4] = Organ uptake by dynamic magnetic resonance imaging; assay type: in vivo, mice; conditions: FIG. 7C
# Protocol: as §1
# (§5) To develop a method for selective delivery of autoantigen to LSEC in vivo, the inventors made use of nanoparticles (NP) that are rapidly cleared from the circulation through uptake by liver cells. Specifically, the inventors took advantage of a polymer-coated nanoparticle (43), which they observed to accumulate selectively in liver sinusoidal endothelium (data not shown). […] Low amounts of radioactivity could be detected in spleen and kidney, whereas uptake into other organs was negligible. […]
# [5] = test system: Splenic CD4+Foxp3− T cells from tg4×Foxp3gfp.KI mice; test: Treg conversion by LSEC in vitro with nanoparticle-conjugated or free MBP peptide; assay type: cell-based; conditions: co-culture with LSEC, TGFβ 2 ng/ml, MBP peptide 5 ng/ml or equivalent dose, four days, flow cytometry (FIG. 11); in % (unit assumed)
# Protocol: FIG. 11: Efficient Treg conversion by LSEC in vitro using nanoparticle-conjugated MBP peptide or free MBP peptide. Splenic CD4+Foxp3− T cells from tg4×Foxp3gfp.KI mice were co-cultured with LSEC in the presence of TGFβ (2 ng/ml) and free MBP peptide (5 ng/ml) or an equivalent dose of MBP peptide coupled to nanoparticles (MBP-NP) for four days. Foxp3 induction in CD4+ T cells was then analyzed by flow cytometry. For statistical analysis, Mann-Whitney test was performed (free MBP: 32.16±1.075; MBP-NP: 29.63±1.558; P=0.2857). n.s.=not significant.
# as §2
# [6] = test system: MBP-induced EAE in B10.PL mice; test: Prevention of MBP-induced EAE in B10.PL mice; assay type: in vivo; conditions: single intravenous injection one day after EAE-induction, B10.PL mice (FIG. 8A)
# Protocol: as §3, §4
# [7] = set-up: species or system mice; conditions: mouse, in vivo, iv
# Protocol: as §1, §5
# CD4+CD25− T cells = test: Generation of Treg cells from CD4+CD25− non-regulatory T cells by antigen presenting cells; assay type: cell-based, mouse
# Protocol: Mouse liver non-parenchymal cells were isolated applying a protocol modified from (28). Briefly, mouse livers were perfused with 0.05% collagenase IV (Sigma; Taufkirchen, Germany) in Gey's balanced salt solution, mechanically dissected and further digested in 0.05% collagenase IV in Gey's balanced salt solution for 25 minutes at 37° C. at constant rotation (240 rpm). Hepatocytes and debris were sedimented twice at 40 g and non-parenchymal cells were recovered by centrifugation over a 17% Optiprep (Sigma) gradient at 400 g.
# Liver sinusoidal endothelial cells (LSEC) were purified from the non-parenchymal cells as described (29) by magnetic sorting with the ME-9F1 antibody (Miltenyi Biotech, Bergisch-Gladbach, Germany). LSEC were seeded on collagen-coated culture plates (Serva, Heidelberg, Germany). After overnight culture in Iscove's modified Dulbecco's medium supplemented with 5% FCS, non-adherent cells were removed by medium change. Accordingly, Kupffer cells were purified from the non-parenchymal cells by magnetic sorting with biotinylated F4/80 antibody (eBioscience, Frankfurt, Germany) and anti-biotin microbeads (Miltenyi).
# Alternatively, hepatocytes were isolated from mouse livers as described (30); and dendritic cells were isolated from mouse spleen by magnetic cell separation for CD11c as described (30).
# 10^5 LSEC, 10^5 Kupffer cells, or 5×10^3 hepatocytes were seeded into 96-well plates, and used on the following day for stimulation of CD4+CD25− T cells. Alternatively, 5×10^4 dendritic cells, were seeded into 96-well plates, and used on the same day for stimulation of CD4+CD25− T cells. These CD4+CD25− non-regulatory T cells were isolated from mouse spleens by magnetic cell separation, and 5×10^5 purified lymphocytes per well were then stimulated on the indicated antigen presenting cells in serum-free medium (Pan Biotech, Aidenbach, Germany) with solute antibody to CD3 (BD Bioscience, Heidelberg, Germany). After four days of culture, the T cells were harvested and analysed by flow cytometry for the percentage of CD4+CD25+FOXP3+ Treg cells. […]
substance,measurement,setting,value
"MBP-NP: Ac1-9 myelin basic protein peptide covalently conjugated by carbodiimide to polymer-coated iron oxide-core nanoparticles (Ac-MGNHSGKRE; also: carbodiimide-conjugated to polymer-coated iron oxide nanoparticles; UniProt P04370 1-9, looked up, fragment)",uptake by LSEC by transmission electron microscopy,LSEC; 60 min after intravenous injection (FIG. 7E),sizeable internalization
same,localisation in liver by intravital confocal fluorescence microscopy,"LSEC; quantum dot core, intravenous injection, FITC-dextran stained LSEC (FIG. 7D)",co-localized with FITC-dextran stained LSEC
same,clinical EAE,EAE in tg4 mice,protected from disease
same,protection from clinical EAE,[1],complete protection from clinical EAE
same,protection from EAE,[2]; Treg-depleted mice (repeated PC61 antibody) (FIG. 8E),could not prevent the development of disease
same,protection from EAE,[2]; control mice (isotype-matched control antibody) (FIG. 8E),induced protection from EAE
same,mean % of CD25+Foxp3+of CD4+ T cells±s.e.m.,"[2]; spleens, day 29 post immunization, flow cytometry, B10.PL mice (FIG. 13)",15.08±0.8594%
same,averaged Zeta-potential,[3],−61.6 mV
same,organ uptake by dynamic magnetic resonance imaging,[4],only hepatic targeting
same,Foxp3 induction in CD4+ T cells,[5],29.63±1.558
same,clinical EAE,[6],lasting and almost complete protection from clinical EAE
"MBP-^59Fe-NP: 59Fe-radiolabeled nanoparticles conjugated to non-labeled MBP peptide (MGNHSGKRE; also: conjugated to 59Fe-labelled nanoparticles; UniProt P04370 1-9, looked up, fragment)",plasma clearance kinetics of radiolabel,[7],cleared with similar kinetics
TGFβ: exogenous cytokine added to some stimulation cultures,percentage of CD4+CD25+FOXP3+ Treg cells among stimulated T cells,"CD4+CD25− T cells; LSEC-stimulated T cells, in the presence of TGFβ, four days of culture",38%
same,percentage of CD4+CD25+FOXP3+ Treg cells among stimulated T cells,"CD4+CD25− T cells; dendritic cell-stimulated T cells, in the presence of exogenous TGFβ, four days of culture",7.5%
same,percentage of CD4+CD25+FOXP3+ Treg cells among stimulated T cells,"CD4+CD25− T cells; liver cell-stimulated T cells (LSEC, Kupffer cells and hepatocytes), in the presence of exogenous TGFβ",at least 20%
"^14C-MBP-NP: 14C-radiolabeled MBP peptide coupled to unlabeled NP (MGNHSGKRE; also: 14C label, nanoparticle conjugate; UniProt P04370 1-9, looked up, fragment)",plasma clearance kinetics of radiolabel,[7],cleared with similar kinetics
"free MBP peptide: encephalitogenic Ac1-9 peptide derived from the amino acid sequence of myelin basic protein, not coupled (Ac-MGNHSGKRE; UniProt P04370 1-9, looked up, fragment) [reference compound]",clinical EAE,EAE in tg4 mice,developed severe EAE
same,Foxp3 induction in CD4+ T cells,[5],32.16±1.075
